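Test compounds were applied to cells in 96-well plates for 48 hours at 5 doses. GI50 marks 50% less growth.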 Calls of active or inactive are those of the source. No stated cut-off is given here; in the data, active = GI50 up to about 1.1 µM and inactive = higher.
Columns and labels:
Experiment in all cases: NCI-60 cell line screen, 48 h
786-0 = tested on: 786-0
CAKI-1 = tested on: CAKI-1
DU-145 = tested on: DU-145
EKVX = tested on: EKVX
K562 = tested on: K562
KM12 = tested on: KM12
M14 = tested on: M14
MCF7 = tested on: MCF7
MDA-MB-435 = tested on: MDA-MB-435
NCI-H460 = tested on: NCI-H460
NCI/ADR-RES = tested on: NCI/ADR-RES
RPMI-8226 = tested on: RPMI-8226
RXF 393 = tested on: RXF 393
SF-295 = tested on: SF-295
SF-539 = tested on: SF-539
SR = tested on: SR
SW-620 = tested on: SW-620
TK-10 = tested on: TK-10
UO-31 = tested on: UO-31
A498 = tested on: A498

| SMILES | GI50 (786-0) | GI50 (CAKI-1) | GI50 (DU-145) | GI50 (EKVX) | GI50 (K562) | GI50 (KM12) | GI50 (M14) | GI50 (MCF7) | GI50 (MDA-MB-435) | GI50 (NCI-H460) | GI50 (NCI/ADR-RES) | GI50 (RPMI-8226) | GI50 (RXF 393) | GI50 (SF-295) | GI50 (SF-539) | GI50 (SR) | GI50 (SW-620) | GI50 (TK-10) | GI50 (UO-31) | GI50 (A498) |
| --- | --- | --- | --- | --- | --- | --- | --- | --- | --- | --- | --- | --- | --- | --- | --- | --- | --- | --- | --- | --- |
| O=C1c2ccsc2-c2cccc3cccc1c23.O=C1c2sccc2-c2cccc3cccc1c23 | 5.89 µM (inactive) | 2.26 µM (inactive) | 0.65 µM (active) | 0.0132 µM (active) | 10 µM (inactive) | 3.52 µM (inactive) | 18.9 µM (inactive) | 8.41 µM (inactive) | 17.1 µM (inactive) | 4.94 µM (inactive) | 3.56 µM (inactive) | 0.0359 µM (active) | 2.49 µM (inactive) | 8.79 µM (inactive) | 6.22 µM (inactive) | 0.203 µM (active) | 3.27 µM (inactive) | 2.55 µM (inactive) | 4.67 µM (inactive) |  |
| COC(=O)/C=C/C1(O)C=CC(=O)C=C1 | 2.23 µM (inactive) | 1.41 µM (inactive) | 2.59 µM (inactive) | 3.61 µM (inactive) | 3.15 µM (inactive) | 2.32 µM (inactive) | 1.79 µM (inactive) | 2.87 µM (inactive) | 5.13 µM (inactive) | 16.3 µM (inactive) | 3.5 µM (inactive) | 2.45 µM (inactive) | 3.12 µM (inactive) | 11 µM (inactive) | 2.15 µM (inactive) | 2.55 µM (inactive) | 5.7 µM (inactive) | 5.37 µM (inactive) | 1.7 µM (inactive) | 26.9 µM (inactive) |
| CN(C(=O)C12C3C4C1C1C2C3C41C(=O)O)C(C)(C)C (stereo not drawn) | > 100 µM (inactive) | > 100 µM (inactive) | > 100 µM (inactive) | > 100 µM (inactive) | > 100 µM (inactive) | > 100 µM (inactive) | > 100 µM (inactive) | > 100 µM (inactive) | > 100 µM (inactive) | > 100 µM (inactive) | > 100 µM (inactive) |  | > 100 µM (inactive) | > 100 µM (inactive) | > 100 µM (inactive) | > 100 µM (inactive) | > 100 µM (inactive) | > 100 µM (inactive) | > 100 µM (inactive) | > 100 µM (inactive) |
| O=C1/C(=C2\SCC(=O)N2c2ccccc2)SC(=S)N1c1ccccc1 | 47.6 µM (inactive) | 21.1 µM (inactive) | 34 µM (inactive) | 30.3 µM (inactive) | 36.1 µM (inactive) | 51.9 µM (inactive) | > 100 µM (inactive) | 36.8 µM (inactive) | 32.1 µM (inactive) | 39.1 µM (inactive) | 27 µM (inactive) | 36.3 µM (inactive) | 34.4 µM (inactive) | 28.1 µM (inactive) | 26.4 µM (inactive) | 12 µM (inactive) | 45.1 µM (inactive) | 28.7 µM (inactive) |  | 40.4 µM (inactive) |
| O=C(O)c1ccccc1Sc1ccc(C=C2NC(=S)N(c3ccccc3)C2=O)s1 | 18.8 µM (inactive) | 44.4 µM (inactive) | > 100 µM (inactive) | 97.3 µM (inactive) | 31.6 µM (inactive) | > 100 µM (inactive) |  | > 100 µM (inactive) | > 100 µM (inactive) | > 100 µM (inactive) | > 100 µM (inactive) | 41 µM (inactive) | > 100 µM (inactive) | > 100 µM (inactive) |  | 29 µM (inactive) | > 100 µM (inactive) | 76.2 µM (inactive) | 78.7 µM (inactive) | > 100 µM (inactive) |
| CC1(C)CC(=O)C(C(c2cccc(O)c2O)C2C(=O)CC(C)(C)CC2=O)C(=O)C1 | 52.6 µM (inactive) | > 100 µM (inactive) | > 100 µM (inactive) | > 100 µM (inactive) | 92.9 µM (inactive) | > 100 µM (inactive) | > 100 µM (inactive) | 49.2 µM (inactive) | 91 µM (inactive) | > 100 µM (inactive) | > 100 µM (inactive) | > 100 µM (inactive) | > 100 µM (inactive) | > 100 µM (inactive) | > 100 µM (inactive) | 36 µM (inactive) | > 100 µM (inactive) | > 100 µM (inactive) |  | > 100 µM (inactive) |
| COC1(OC)CC(CO)(CNc2nc(N)nc(Cl)c2C=O)C1 | > 100 µM (inactive) | 42.6 µM (inactive) | 95.9 µM (inactive) | 22.8 µM (inactive) | 5.74 µM (inactive) | 49 µM (inactive) |  | 57.7 µM (inactive) | 25.8 µM (inactive) | 85.7 µM (inactive) | 31 µM (inactive) | > 100 µM (inactive) | 34.1 µM (inactive) | > 100 µM (inactive) | > 100 µM (inactive) | 20.1 µM (inactive) | 53.2 µM (inactive) | > 100 µM (inactive) | 60.1 µM (inactive) | > 100 µM (inactive) |
| N#Cc1nc(CCN2C(=O)c3ccccc3C2=O)oc1N | > 100 µM (inactive) | > 100 µM (inactive) | > 100 µM (inactive) | > 100 µM (inactive) | > 100 µM (inactive) | 4.45 µM (inactive) | > 100 µM (inactive) | > 100 µM (inactive) | > 100 µM (inactive) | > 100 µM (inactive) | > 100 µM (inactive) | > 100 µM (inactive) | > 100 µM (inactive) | > 100 µM (inactive) | > 100 µM (inactive) | > 100 µM (inactive) | > 100 µM (inactive) | > 100 µM (inactive) | > 100 µM (inactive) |  |
| CC1Cc2c(Br)nc(N)nc2NC1=O (stereo not drawn) | > 100 µM (inactive) | > 100 µM (inactive) | > 100 µM (inactive) | > 100 µM (inactive) | > 100 µM (inactive) | > 100 µM (inactive) | > 100 µM (inactive) | > 100 µM (inactive) | > 100 µM (inactive) | > 100 µM (inactive) | > 100 µM (inactive) | > 100 µM (inactive) |  | > 100 µM (inactive) | > 100 µM (inactive) | 86.3 µM (inactive) | > 100 µM (inactive) | > 100 µM (inactive) | > 100 µM (inactive) | > 100 µM (inactive) |
| O=c1ccn(C/C=C/c2ccccc2)c(=S)n1C/C=C/c1ccccc1 | > 100 µM (inactive) | > 100 µM (inactive) | > 100 µM (inactive) | 66.8 µM (inactive) | 15.8 µM (inactive) | > 100 µM (inactive) | 73.6 µM (inactive) | 18.3 µM (inactive) | 60 µM (inactive) | 80 µM (inactive) | > 100 µM (inactive) |  | 9.75 µM (inactive) | > 100 µM (inactive) |  | 8.24 µM (inactive) | > 100 µM (inactive) | > 100 µM (inactive) | 76 µM (inactive) | > 100 µM (inactive) |
| CN1CC(c2ccccc2)C(O)(C2(c3ccccc3)CN(C)CC(c3ccccc3)C2=O)C(c2ccccc2)C1 (stereo not drawn) | > 100 µM (inactive) | > 100 µM (inactive) | > 100 µM (inactive) | > 100 µM (inactive) | > 100 µM (inactive) | > 100 µM (inactive) | > 100 µM (inactive) | > 100 µM (inactive) | > 100 µM (inactive) | 45.8 µM (inactive) | > 100 µM (inactive) | > 100 µM (inactive) |  | 55.2 µM (inactive) | > 100 µM (inactive) | > 100 µM (inactive) | > 100 µM (inactive) | > 100 µM (inactive) | > 100 µM (inactive) | 91.2 µM (inactive) |
| COc1ccccc1C[C@@H]1OC2(C=CC(=O)CC2SC(=O)c2ccccc2)O[C@H]1Cc1ccccc1OC (stereo partly drawn) | 0.275 µM (active) | 1.79 µM (inactive) | 3.78 µM (inactive) |  | 2.51 µM (inactive) | 2.48 µM (inactive) | 1.56 µM (inactive) | 0.363 µM (active) | 1.94 µM (inactive) | 2.44 µM (inactive) | 1.46 µM (inactive) | 0.3 µM (active) | 0.121 µM (active) | 1.63 µM (inactive) | 1.67 µM (inactive) | 0.308 µM (active) | 0.324 µM (active) | 1.54 µM (inactive) | 1.28 µM (inactive) | 2.46 µM (inactive) |
| Nc1ccc(S(=O)(=O)Nc2nc3ccccc3nc2N2CCCCC2)cc1 | > 100 µM (inactive) | > 100 µM (inactive) | > 100 µM (inactive) | > 100 µM (inactive) | > 100 µM (inactive) | 70.1 µM (inactive) | 91 µM (inactive) | 84.3 µM (inactive) | > 100 µM (inactive) | 79.3 µM (inactive) | 46.3 µM (inactive) | 58.9 µM (inactive) | 55.2 µM (inactive) | 71.4 µM (inactive) | > 100 µM (inactive) | 60.5 µM (inactive) | 59 µM (inactive) | 37.6 µM (inactive) | 11.3 µM (inactive) |  |
| CC(C)OC(=O)Nc1cccc(Cl)c1 [CHLORPROPHAM] | > 100 µM (inactive) | > 100 µM (inactive) | > 100 µM (inactive) | 63.1 µM (inactive) | 89.9 µM (inactive) | 70.1 µM (inactive) | > 100 µM (inactive) | > 100 µM (inactive) | > 100 µM (inactive) | 76.4 µM (inactive) | 91.4 µM (inactive) | > 100 µM (inactive) | > 100 µM (inactive) | > 100 µM (inactive) | > 100 µM (inactive) | > 100 µM (inactive) | > 100 µM (inactive) | > 100 µM (inactive) | > 100 µM (inactive) |  |
| Cc1nn(C(=O)c2ccc(Cl)cc2)c2c1C(c1ccc(O)cc1)SC(=N)N2 (stereo not drawn) | > 10 µM (inactive) | > 10 µM (inactive) | > 10 µM (inactive) | > 10 µM (inactive) | > 10 µM (inactive) | > 10 µM (inactive) | > 10 µM (inactive) | > 10 µM (inactive) | > 10 µM (inactive) | > 10 µM (inactive) | > 10 µM (inactive) | > 10 µM (inactive) | > 10 µM (inactive) | > 10 µM (inactive) | > 10 µM (inactive) | > 10 µM (inactive) | > 10 µM (inactive) | > 10 µM (inactive) |  |  |

— ChEMBL document CHEMBL1201862, “PubChem BioAssay data set” (2004)
